≈ marks a conversion by molar mass, not a printed value. Positions of bridges follow the written chain, without caps; N, C: chain ends. Non-standard residues stand in square brackets, D forms with d. Residues, ends and D or L forms follow the SMILES beside them. *: point of attachment. Benzoyl(3-CF3) = O=C(c1cccc(C(F)(F)F)c1)*; Benzoyl(4-Cl) = O=C(c1ccc(Cl)cc1)*; X12 = O=C(c1ccc(C(F)(F)F)c(F)c1)*; X9 = Cc1ccc(C(=O)*)cc1C(F)(F)F; X10 = O=C(c1cc(F)cc(Cl)c1)*; dNle = CCCC[C@@H](N)C(=O)O; X11 = Cc1ccc(C(=O)*)cc1Cl; Octanoyl = CCCCCCCC(=O)*; Dab = NCC[C@H](N)C(=O)O; Abu = CC[C@H](N)C(=O)O; Dap = NC[C@H](N)C(=O)O
What was measured:
P. aeruginosa ATCC 27853 = test: In vivo efficacy in mouse blood infection model (neutropenic Swiss mice); conditions: compound, free base 4 mg/kg intravenously 2 h after inoculation, blood at 4 h
In short: (§1)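 Activity expressed as Δlog10 CFU/mL blood, treated minus saline control, 4 h after a single 4 mg/kg (free base) i.v. dose given 2 h post-infection. Bloodstream infection from i.v. early log-phase inoculum in Swiss mice made neutropenic by i.p. cyclophosphamide on days −4 (150 mg/kg) and −1 (100 mg/kg).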

A. baumannii ATCC 19606 = test: as above; conditions: compound, free base 4 mg/kg intravenously 2 h after inoculation, blood at 4 h
In short: as §1

Klebsiella pneumoniae = tested on: Klebsiella pneumoniae
In short: (§2)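 Lipopeptides, as trifluoroacetate salts, tested for MIC in CAMHB by CLSI broth microdilution, with polymyxin B (sulphate) as comparator.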

Acinetobacter baumannii = tested on: Acinetobacter baumannii
In short: as §2

Pseudomonas aeruginosa = tested on: Pseudomonas aeruginosa
In short: as §2

Enterobacter cloacae = tested on: Enterobacter cloacae
In short: as §2

[1] = tested on: K. pneumoniae FADDI-KP032; test: In vivo efficacy in mouse blood infection model (neutropenic Swiss mice); conditions: compound, free base 4 mg/kg intravenously 2 h after inoculation, blood at 4 h
In short: as §1

SMILES | Δ log (Treated-Control at 4 h) (P. aeruginosa ATCC 27853) | Δ log (Treated-Control at 4 h) (A. baumannii ATCC 19606) | MIC (Klebsiella pneumoniae) | MIC (Acinetobacter baumannii) | Minimum inhibitory concentration, Ab A ATCC 17978 (Acinetobacter baumannii) | Minimum inhibitory concentration, Ab ATCC 19606 (Acinetobacter baumannii) | Minimum inhibitory concentration, Ab FADDI-AB034 (Acinetobacter baumannii) | MIC (Pseudomonas aeruginosa) | Minimum inhibitory concentration, Pa ATCC 27853 (Pseudomonas aeruginosa) | Minimum inhibitory concentration, Pa FADDI-PA022 (Pseudomonas aeruginosa) | Minimum inhibitory concentration, Pa FADDI-PA025 (Pseudomonas aeruginosa) | Minimum inhibitory concentration, Ec FADDI-EC001 (Enterobacter cloacae) | Minimum inhibitory concentration, Ec FADDI-EC003 (Enterobacter cloacae) | Minimum inhibitory concentration, Ec FADDI-EC006 (Enterobacter cloacae) | Δ log (Treated-Control at 4 h) [1]
CC[C@@H]1NC(=O)[C@@H](CC(C)C)NC(=O)[C@H](CCN)NC(=O)[C@@H](NC(=O)[C@H](CN)NC(=O)[C@@H](NC(=O)[C@H](CCN)NC(=O)c2ccc(C(F)(F)F)c(F)c2)[C@@H](C)O)CCNC(=O)[C@H]([C@@H](C)O)NC(=O)[C@H](CCN)NC(=O)[C@H](CCN)NC1=O [Compound 111] (X12-[Dab]T[Dap][Dab][Dab][dL][Abu][Dab][Dab]T; lactam 4-C) | −3.65 log10 CFU/mL | −1.66 log10 CFU/mL | 0.25 mg/L (≈ 0.212 µM) | 0.5 mg/L (≈ 0.425 µM) | 0.5 mg/L (≈ 0.425 µM) | 0.5 mg/L (≈ 0.425 µM) | 0.25 mg/L (≈ 0.212 µM) | 1 mg/L (≈ 0.849 µM) | 0.5 mg/L (≈ 0.425 µM) | 1 mg/L (≈ 0.849 µM) | 1 mg/L (≈ 0.849 µM) | 0.5 mg/L (≈ 0.425 µM) | 0.25 mg/L (≈ 0.212 µM) | 0.25 mg/L (≈ 0.212 µM) | 
CC[C@@H]1NC(=O)[C@@H](CC(C)C)NC(=O)[C@H](CCN)NC(=O)[C@@H](NC(=O)[C@H](CN)NC(=O)[C@@H](NC(=O)[C@H](CCN)NC(=O)c2cc(F)cc(Cl)c2)[C@@H](C)O)CCNC(=O)[C@H]([C@@H](C)O)NC(=O)[C@H](CCN)NC(=O)[C@H](CCN)NC1=O [Compound 116] (X10-[Dab]T[Dap][Dab][Dab][dL][Abu][Dab][Dab]T; lactam 4-C) | −2.81 log10 CFU/mL | −1.51 log10 CFU/mL | 0.5 mg/L (≈ 0.437 µM) | 0.5 mg/L (≈ 0.437 µM) | 0.5 mg/L (≈ 0.437 µM) | 0.5 mg/L (≈ 0.437 µM) | 0.25 mg/L (≈ 0.219 µM) | 0.5 mg/L (≈ 0.437 µM) | 0.5 mg/L (≈ 0.437 µM) | 0.5 mg/L (≈ 0.437 µM) | 1 mg/L (≈ 0.874 µM) | 0.25 mg/L (≈ 0.219 µM) | 0.25 mg/L (≈ 0.219 µM) | 0.25 mg/L (≈ 0.219 µM) | 
C[C@@H]1NC(=O)[C@@H](Cc2ccccc2)NC(=O)[C@H](CCN)NC(=O)[C@@H](NC(=O)[C@H](CN)NC(=O)[C@@H](NC(=O)[C@H](CCN)NC(=O)c2cccc(C(F)(F)F)c2)[C@@H](C)O)CCNC(=O)[C@H]([C@@H](C)O)NC(=O)[C@H](CCN)NC(=O)[C@H](CCN)NC1=O [Compound 126] ({Benzoyl(3-CF3)}-[Dab]T[Dap][Dab][Dab][dF]A[Dab][Dab]T; lactam 4-C) | −3.97 log10 CFU/mL |  | 0.5 mg/L (≈ 0.424 µM) | 1 mg/L (≈ 0.848 µM) | 1 mg/L (≈ 0.848 µM) | 1 mg/L (≈ 0.848 µM) | 1 mg/L (≈ 0.848 µM) | 0.25 mg/L (≈ 0.212 µM) | 0.25 mg/L (≈ 0.212 µM) | 1 mg/L (≈ 0.848 µM) | 2 mg/L (≈ 1.7 µM) | 0.5 mg/L (≈ 0.424 µM) | 0.5 mg/L (≈ 0.424 µM) | 0.5 mg/L (≈ 0.424 µM) | −2.68 log10 CFU/mL
CCCCCCCC(=O)N[C@@H](CCN)C(=O)N[C@H](C(=O)N[C@@H](CCN)C(=O)N[C@H]1CCNC(=O)[C@H]([C@@H](C)O)NC(=O)[C@H](CCN)NC(=O)[C@H](CCN)NC(=O)[C@H](C)NC(=O)[C@@H](CC(C)C)NC(=O)[C@H](CCN)NC1=O)[C@@H](C)O [Compound 21] (Octanoyl-[Dab]T[Dab][Dab][Dab][dL]A[Dab][Dab]T; lactam 4-C) | −2.26 log10 CFU/mL | −2.43 log10 CFU/mL | 0.25 mg/L (≈ 0.225 µM) | 1 mg/L (≈ 0.898 µM) | 2 mg/L (≈ 1.8 µM) | 1 mg/L (≈ 0.898 µM) | 0.5 mg/L (≈ 0.449 µM) | 0.5 mg/L (≈ 0.449 µM) | 0.5 mg/L (≈ 0.449 µM) | 0.5 mg/L (≈ 0.449 µM) | >32 mg/L | 0.125 mg/L (≈ 0.112 µM) | 0.125 mg/L (≈ 0.112 µM) | 0.125 mg/L (≈ 0.112 µM) | 
CC[C@@H]1NC(=O)[C@@H](CC(C)C)NC(=O)[C@H](CCN)NC(=O)[C@@H](NC(=O)[C@H](CN)NC(=O)[C@@H](NC(=O)[C@H](CCN)NC(=O)c2ccc(C)c(C(F)(F)F)c2)[C@@H](C)O)CCNC(=O)[C@H]([C@@H](C)O)NC(=O)[C@H](CCN)NC(=O)[C@H](CCN)NC1=O [Compound 113] (X9-[Dab]T[Dap][Dab][Dab][dL][Abu][Dab][Dab]T; lactam 4-C) | −2.61 log10 CFU/mL | −1.60 log10 CFU/mL | 0.25 mg/L (≈ 0.213 µM) | 0.5 mg/L (≈ 0.426 µM) | 0.25 mg/L (≈ 0.213 µM) | 0.5 mg/L (≈ 0.426 µM) | 0.25 mg/L (≈ 0.213 µM) | 0.5 mg/L (≈ 0.426 µM) | 1 mg/L (≈ 0.852 µM) | 0.5 mg/L (≈ 0.426 µM) | 2 mg/L (≈ 1.7 µM) | 1 mg/L (≈ 0.852 µM) | 0.25 mg/L (≈ 0.213 µM) | 1 mg/L (≈ 0.852 µM) | 
CCCCCCCC(=O)N[C@@H](CCN)C(=O)N[C@H](C(=O)N[C@@H](CO)C(=O)N[C@H]1CCNC(=O)[C@H]([C@@H](C)O)NC(=O)[C@H](CCN)NC(=O)[C@H](CCN)NC(=O)[C@H]([C@@H](C)O)NC(=O)[C@@H](CC(C)C)NC(=O)[C@H](CCN)NC1=O)[C@@H](C)O [Compound 4] (Octanoyl-[Dab]TS[Dab][Dab][dL]T[Dab][Dab]T; lactam 4-C) |  |  | 1 mg/L (≈ 0.885 µM) | 8 mg/L (≈ 7.08 µM) | 8 mg/L (≈ 7.08 µM) | 8 mg/L (≈ 7.08 µM) | 4 mg/L (≈ 3.54 µM) | 4 mg/L (≈ 3.54 µM) | 4 mg/L (≈ 3.54 µM) | 8 mg/L (≈ 7.08 µM) | >32 mg/L | 0.5 mg/L (≈ 0.442 µM) | 0.25 mg/L (≈ 0.221 µM) | 1 mg/L (≈ 0.885 µM) | −1.84 log10 CFU/mL
CC[C@@H]1NC(=O)[C@@H](CC(C)C)NC(=O)[C@H](CCN)NC(=O)[C@@H](NC(=O)[C@H](CN)NC(=O)[C@@H](NC(=O)[C@H](CCN)NC(=O)c2ccc(C)c(Cl)c2)[C@@H](C)O)CCNC(=O)[C@H]([C@@H](C)O)NC(=O)[C@H](CCN)NC(=O)[C@H](CCN)NC1=O [Compound 105] (X11-[Dab]T[Dap][Dab][Dab][dL][Abu][Dab][Dab]T; lactam 4-C) | −2.54 log10 CFU/mL | −1.31 log10 CFU/mL | 0.25 mg/L (≈ 0.219 µM) | 0.5 mg/L (≈ 0.439 µM) | 0.5 mg/L (≈ 0.439 µM) | 0.5 mg/L (≈ 0.439 µM) | 0.25 mg/L (≈ 0.219 µM) | 0.5 mg/L (≈ 0.439 µM) | 0.5 mg/L (≈ 0.439 µM) | 1 mg/L (≈ 0.877 µM) | 2 mg/L (≈ 1.75 µM) | 1 mg/L (≈ 0.877 µM) | 0.5 mg/L (≈ 0.439 µM) | 1 mg/L (≈ 0.877 µM) | 
CCCC[C@H]1NC(=O)[C@H](CCN)NC(=O)[C@@H](NC(=O)[C@H](CN)NC(=O)[C@@H](NC(=O)[C@H](CCN)NC(=O)c2cccc(C(F)(F)F)c2)[C@@H](C)O)CCNC(=O)[C@H]([C@@H](C)O)NC(=O)[C@H](CCN)NC(=O)[C@H](CCN)NC(=O)[C@H]([C@@H](C)O)NC1=O [Compound 123] ({Benzoyl(3-CF3)}-[Dab]T[Dap][Dab][Dab][dNle]T[Dab][Dab]T; lactam 4-C) | −2.96 log10 CFU/mL | −1.53 log10 CFU/mL | 0.5 mg/L (≈ 0.425 µM) | 1 mg/L (≈ 0.851 µM) | 1 mg/L (≈ 0.851 µM) | 1 mg/L (≈ 0.851 µM) | 0.5 mg/L (≈ 0.425 µM) | 0.5 mg/L (≈ 0.425 µM) | 0.5 mg/L (≈ 0.425 µM) | 0.5 mg/L (≈ 0.425 µM) | 2 mg/L (≈ 1.7 µM) | 0.5 mg/L (≈ 0.425 µM) | 0.5 mg/L (≈ 0.425 µM) | 1 mg/L (≈ 0.851 µM) | 
CC[C@@H]1NC(=O)[C@@H](CC(C)C)NC(=O)[C@H](CCN)NC(=O)[C@@H](NC(=O)[C@H](CN)NC(=O)[C@@H](NC(=O)[C@H](CCN)NC(=O)c2ccc(Cl)cc2)[C@@H](C)O)CCNC(=O)[C@H]([C@@H](C)O)NC(=O)[C@H](CCN)NC(=O)[C@H](CCN)NC1=O [Compound 94] ({Benzoyl(4-Cl)}-[Dab]T[Dap][Dab][Dab][dL][Abu][Dab][Dab]T; lactam 4-C) | −3.23 log10 CFU/mL | −1.26 log10 CFU/mL | 0.25 mg/L (≈ 0.222 µM) | 1 mg/L (≈ 0.888 µM) | 0.5 mg/L (≈ 0.444 µM) | 1 mg/L (≈ 0.888 µM) | 0.25 mg/L (≈ 0.222 µM) | 0.5 mg/L (≈ 0.444 µM) | 0.5 mg/L (≈ 0.444 µM) | 0.5 mg/L (≈ 0.444 µM) | 2 mg/L (≈ 1.78 µM) | 0.25 mg/L (≈ 0.222 µM) | 0.25 mg/L (≈ 0.222 µM) | 0.5 mg/L (≈ 0.444 µM) | 

Reference: USRE48335E1, “Polymyxin derivatives as antimicrobial compounds” (priority 2014, dated 2020)
